# Legend:
# [1] = Cleavage of the disulfide bond in the drug-linker conjugate (drug release with cysteine as a model of glutathione, monitored by HPLC); type: physicochemical; details: cysteine in buffer pH 7.0 / CH3CN, room temperature, after 2 hours
# Description: In order to confirm that the designed drug-release mechanism works under physiological conditions, a control experiment was performed using an anticancer linker drug conjugate and cysteine as a model of glutathione. The results of the experiment below provide clear evidence that the drug is released according to the desired mechanism of the invention.
# To a solution of the drug-linker conjugate, 2′-(5-fluoro-2-methyldisulfanylphenyl)acetyl-3′-dephenyl-3′-(2-methylpropyl)-10-propanoyldocetaxel, (4.8 mg, 0.0045 mmol) in CH3CN (1.1 mL) was added cysteine (2.20 mg, 0.018 mmol) in buffer (pH 7.0, 0.56 mL) solution. The mixture was stirred at room temperature. The progress of the disulfide cleavage and drug release process was monitored by HPLC [Conditions: C-18 column. Flow rate: H2O, 0.6 mL/min; CH3CN, 0.4 mL/min., ambient temperature] periodically. The formations of thiolactone (5-fluoro-3H-benzo[b]thiophen-2-one) (retention time=9.05 min) and taxoid (3′-dephenyl-3′-(2-methylpropyl)-10-propanoyldocetaxel) (retention time=14.01 min) as well as the disappearance of the drug-linker conjugate (retention time=18.20 min) was clearly observed.
"disappearance of the drug-linker conjugate (disulfide cleavage and drug release: release of the taxoid, formation of the thiolactone) [1]",melting point [°C],Compound
completely disappeared,–,2′-(5-fluoro-2-methyldisulfanylphenyl)acetyl-3′-dephenyl-3′-(2-methylpropyl)-10-propanoyldocetaxel
–,122 to 125,"CC(C)(CC(=O)O)c1ccccc1SSc1ccccn1 [Example 7, 3-Methyl-3-[2-(pyridine-2-yldisulfanyl)phenyl]butanoic acid]"

# Source: patent publication US7282590B2, “Drug conjugates” (The Research Foundation of State University of New York, priority 2004, dated 2007)
